Key:
RKO cells [1] = assay: gene expression analysis by RNA deep sequencing (FPKM) in RKO cells; format: cell-based; settings: 10 μM PIP, hypoxia after AZA, FIG. 8 right graphs
Protocol: (§1) The large intestine cancer cell line RKO cells were seeded at a density of 1×10^5 cells over a 6 cm dish and incubated for 24 hours. Subsequently, the culture solution was replaced with a culture solution containing 0.5 μM 5-aza-2′-deoxycytidine (AZA). The cultured cells were exposed to AZA over 2.4 hours. The cells were recovered on the 10th day, or cultured under hypoxic conditions as mentioned below.
(§2) In order to culture the cells under hypoxic conditions, the cells were cultured for 8 days under continuous aeration conditions with humidified air containing 94% N2, 5% CO2 and 1% O2 in an incubator equipped with an O2 sensor and MCO-18M regulator (Sanyo Electric Co., Ltd., Osaka, Japan). The CO2 concentration was maintained by the internal CO2 concentration regulation mechanism. Subsequently, the AZA-treated cells were treated with 0.1% DMSO containing 10 μM Im0 or Im3 for 75 days. During this operation, the medium containing PIP was replaced every 5 days. The cells were subcultured at a density of 2×10^5 cells over a 6 cm dish when becoming confluent. The cells were recovered on the 0th day (H0, before hypoxia treatment) and the 75th day (H75).
Next, the expression levels of particular genes were analyzed. An RNA library was prepared using TruSeq Stranded mRNA Sample Prep Kit (Illumina, Inc.) according to the manufacturer's manual. Deep sequencing was performed using Illumina HiSeq 1500 or NextSeq 500 platform. FASTQ reads were mapped using TopHat, and transcripts were assembled using Cufflinks. gene expression was expressed as FPKM (fragments per kilobase of exon per million reads mapped). The results were as shown in the right graphs of FIG. 8.

RKO cells [2] = assay: genome-wide DNA methylation analysis (Infinium Human Methylation 450 BeadChip) in RKO cells; format: cell-based; settings: for genome-wide methylation level: RKO cells, 0.5 μM AZA, 10 μM Im0 or Im3 under hypoxic conditions, FIG. 8; for genes whose methylation level was reduced by Im0 and Im3 in common, TSS±1 kb region / probes whose methylation level was reduced by Im0 and Im3 in common, TSS±1 kb region / probes whose methylation level was reduced by Im0 and Im3 in common, whole genome: β value <0.65 in Im0-treated and in Im3-treated cells of H75; for genes whose methylation was selectively reduced by this PIP, TSS±1 kb region / probes whose methylation was selectively reduced by this PIP, TSS±1 kb region / probes whose methylation was selectively reduced by this PIP, whole genome: β value <0.65 with this PIP and >0.8 with the other PIP on H75, 10 μM, 75 days, hypoxia after AZA
Protocol: as §1, §2
Genome-wide DNA methylation analysis was conducted as follows: first, 500 ng of genomic DNA obtained from each sample was treated with bisulfite using Zymo EZ DNA Methylation Kit (Zymo Research Corp., Irvine, Calif., USA). Whole genome amplification, labeling, hybridization and scanning were performed according to manufacturers' manuals.
Methylation analysis was conducted using Infinium Human Methylation 450 BeadChip (Illumina, Inc.) for the whole genome or in a ±1 kb region of the transcription start site (TSS) of each gene. Specifically, the ratio of probes for methylated sequences to the total of the probes for methylated sequences and probes for nonmethylated sequences (in the present specification, referred to as a “β value”) was determined. The β value is 0.00 when no methylation is found in all CpG sites, and is 1.00 when all CpG sites are methylated.
First, genes with β value >0.8 in the negative control RKO cells were selected. Genes with β value <0.5 on HO and β value >0.8 in the presence of treatment with 0.1% DMSO on H75 were further selected from the selected genes.

[3] = tested on: promoter region of the MLH1 gene; assay: methylation of promoter region of MLH1 gene in RKO cells, pyrosequencing; format: cell-based
Protocol: 1.0×10^5 cells of the […] cells were seeded over a 6 cm dish and treated with a medium containing 5.0 μM 5-aza-2'-deoxycytidine (AZA) over 7 days from the next day. The medium was replaced with a fresh medium every 24 hours. The cells were treated with a medium containing 10 nM trichostatin A (TSA) on the 7th day and recovered on the 8th day. […] The cells of the 8th day were cultured under hypoxic conditions of 1% O2 and 5% CO2. The cells were treated with 0.1% DMSO containing 5 μM PIP1 or PIP2, recovered on the 0th day (R0), the 20th day (R20) and the 30th day ([…]), and examined for the degree of methylation in the region from -27 to -1 of the MLH1 gene by pyrosequencing. During the treatment with PIP, the medium containing PIP1 or PIP2 was replaced every 5 days, and the cells were subcultured when becoming confluent.

MLH1 gene = assay: expression of mRNA of the MLH1 gene in RKO cells by RT-PCR; format: cell-based
[4] = tested on: region from −27 to −1 of the MLH1 gene; assay: in vitro methylation of MLH1 plasmid by CpG methyltransferase M.SssI, pyrosequencing; format: biochemical; settings: varying concentrations of PIP1, M.SssI, FIG. 3C
Protocol: A region from −780 to +483 (SEQ ID NO: 1) of MLH1 was amplified from the genomic DNA of the RKO cells by PCR using primers of SEQ ID NOs: 6 and 7 to obtain a DNA fragment, which was then integrated into pGEM-T Easy vector (Promega Corp., Fitchburg, USA) according to the manufacturer's manual (see FIG. 3A). 1 μg of the obtained plasmid was incubated at 25° C. for 12 hours in varying concentrations of PIP1 or 40 μM of PIP2 and 1× NEB buffer solution 2 (New England Biolabs Inc., Ipswich, USA) to bind the pyrrole imidazole polyamide to the DNA. For a negative control, DMSO was added to the plasmid and incubated.
[…] of S-adenosylmethionine (New England Biolabs Inc.) and 4 units of CpG methyltransferase M.SssI (New England Biolabs Inc.) were added to each sample, and 5% DMSO was added thereto to adjust the amount to 20 μL. After incubation at 37° C. for 2 hours, the reaction was terminated by incubation at 65° C. for 20 minutes. The DNA was purified by ethanol precipitation and dissolved in 100 μL of 10 mM Tris-HCl (pH 8.0). Then, the degree of DNA methylation at various sites of the MLH1 gene was tested by pyrosequencing. The primers used were as described in the following table.

[5] = tested on: FAM-labeled double-stranded oligo DNA of 15 base pairs including a region from −22 to −8 of the MLH1 gene; assay: gel shift assay of binding to the target sequence; settings: 1 μM double-stranded oligo DNA, 37° C. for 1 hour, FIG. 2A
Protocol: PIP1 was confirmed by gel shift assay to bind to the target sequence. FAM-labeled double-stranded oligo DNA of 15 base pairs including a region from −22 to −8 of the MLH1 gene (double-stranded oligo DNA obtained by annealing sequences of SEQ ID NOs: 2 and 3) was prepared (lower part of FIG. 2A). 1 μM double-stranded oligo DNA was mixed at an indicated final concentration with PIP1 or PIP2 dissolved in 10 μL of a reaction solution containing 10 mM Tris-HCl (pH 8.0) and 10% DMSO, followed by incubation at 37° C. for 1 hour. The obtained reaction product was electrophoresed using 20% polyacrylamide gel, and double-stranded DNA on the gel was visualized using LAS-3000 (Fujifilm Corp., Japan).

Row | Compound | gene expression of NOSTRIN, DSCR9, SLC22A25, OR3A4P and C1WTNF6 (RKO cells [1]) | gene expression of TCP11, LYPDS, STAR, LOC253573 and LOC100507573 (RKO cells [1]) | genome-wide methylation level (RKO cells [2]) | genes whose methylation level was reduced by Im0 and Im3 in common, TSS±1 kb region (RKO cells [2]) [genes] | probes whose methylation level was reduced by Im0 and Im3 in common, TSS±1 kb region (RKO cells [2]) [probes] | probes whose methylation level was reduced by Im0 and Im3 in common, whole genome (RKO cells [2]) [probes] | genes whose methylation was selectively reduced by this PIP, TSS±1 kb region (RKO cells [2]) [genes] | probes whose methylation was selectively reduced by this PIP, TSS±1 kb region (RKO cells [2]) [probes] | probes whose methylation was selectively reduced by this PIP, whole genome (RKO cells [2]) [probes] | degree of methylation in the promoter region from −27 to −1 of the MLH1 gene after demethylation treatment ([3]; RKO cells, 5.0 μM AZA over 7 days, 10 nM TSA on the 7th day, FIG. 4A) | expression of mRNA of the MLH1 gene after demethylation treatment (MLH1 gene; RKO cells, 5.0 μM AZA over 7 days, 10 nM TSA on the 7th day, FIG. 4B) | degree of DNA methylation in the region from −27 to −1 of the MLH1 gene on R20 and R30 ([3]; AZA or AZA+TSA pretreated RKO cells, hypoxic conditions 1% O2, 5 μM PIP, FIGS. 6A and 6B) | methylation in a −70 region, a −63 region, a +156 region, and a +171 region of the MLH1 gene ([3]; sites distant from the target site, hypoxic conditions, 5 μM PIP, FIG. 6E) | expression of mRNA of the MLH1 gene, which is reduced along with methylation (MLH1 gene; AZA+TSA-treated cells, hypoxic conditions, 5 μM PIP, FIGS. 6C and 6D) | inhibition of DNA methylation in the region from −27 to −1 of the MLH1 gene [4] | binding to the target double-stranded DNA (band shift) [5]
1 | Me-Py-Py-Im-Py-β-Dp [Im3] | selectively maintained | maintained | methylation levels of genes as a whole were drastically reduced | 9 | 19 | 19 | 254 | 450 | 1171 | – | – | – | – | – | – | –
2 | Me-Py-Py-Py-Py-β-Dp [Im0] | – | maintained | methylation levels of some genes were drastically reduced | 9 | 19 | 19 | 1110 | 2135 | 6099 | – | – | – | – | – | – | –
3 | Nc1ncn([C@H]2C[C@H](O)[C@@H](CO)O2)c(=O)n1 [AZA, 5-aza-2′-deoxycytidine, reference compound] | – | – | demethylated genome-wide | – | – | – | – | – | – | reduced | restored | – | – | – | – | –
4 | CC(=O)Nc1cc(C(=O)Nc2cn(C)c(C(=O)NCCC(=O)Nc3cn(C)c(C(=O)Nc4cn(C)c(C(O)Nc5c[nH]c(C(=O)NCCCC(=O)Nc6cn(C)c(C(=O)Nc7cc(C(=O)NCCC(=O)Nc8cn(C)c(C(=O)Nc9cc(C(=O)Nc%10cc(C(=O)NCCC(=O)NCCCN(C)C)n(C)c%10)n(C)c9)n8)n(C)c7)n6)c5)n4)n3)n2)n(C)c1 (stereo not drawn) [PIP1, Ac-Py-Im-β-Im-Im-Py-γ-Im-Py-β-Im-Py-Py-β-Dp] | – | – | – | – | – | – | – | – | – | – | – | an increase in the degree of methylation was suppressed | suppress methylation | maintained | inhibited DNA methylation in a concentration-dependent manner | confirmed to bind to the target double-stranded DNA

— patent US20210106612A1, “TARGET GENE TRANSCRIPTIONAL REPRESSION INHIBITOR THAT CAN BE DESIGNED IN A SEQUENCE-SPECIFIC MANNER, COMPOSITION CONTAINING SAME, AND USE THEREOF” (National University Corporation Chiba University, priority 2016, published 2021)
